Test results taken from PubChem BioAssay (NCI).
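How tested: cells in 96-well plates exposed to compound for 48 hours at five concentrations. TGI is the concentration that stops growth completely.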

Key:
Assay in all cases: NCI tumour cell line growth inhibition, 48 h
SK-MEL-2 melanoma = test system: SK-MEL-2 melanoma
MOLT-4 leukemia = test system: MOLT-4 leukemia
UACC-257 melanoma = test system: UACC-257 melanoma
RXF 393 renal = test system: RXF 393 renal
SR leukemia = test system: SR leukemia
SF-295 CNS = test system: SF-295 CNS
NCI-H522 lung = test system: NCI-H522 lung
CAKI-1 renal = test system: CAKI-1 renal
SW-620 colon = test system: SW-620 colon
HOP-62 NSCLC = test system: HOP-62 NSCLC
NCI-H226 lung = test system: NCI-H226 lung
MCF7 breast = test system: MCF7 breast
A498 renal = test system: A498 renal
BT-549 breast = test system: BT-549 breast

| SMILES | TGI (SK-MEL-2 melanoma) [µM] | TGI (MOLT-4 leukemia) [µM] | TGI (UACC-257 melanoma) [µM] | TGI (RXF 393 renal) [µM] | TGI (SR leukemia) [µM] | TGI (SF-295 CNS) [µM] | TGI (NCI-H522 lung) [µM] | TGI (CAKI-1 renal) [µM] | TGI (SW-620 colon) [µM] | TGI (HOP-62 NSCLC) [µM] | TGI (NCI-H226 lung) [µM] | TGI (MCF7 breast) [µM] | TGI (A498 renal) [µM] | TGI (BT-549 breast) [µM] |
| --- | --- | --- | --- | --- | --- | --- | --- | --- | --- | --- | --- | --- | --- | --- |
| CC(=O)OC1COC(n2c(O)c(N=NC(N)=S)c3cc(Br)ccc32)C(OC(C)=O)C1OC(C)=O (centres undefined) | > 100 | > 100 | > 100 | > 100 | > 100 | > 100 | > 100 | > 100 | > 100 | > 100 | > 100 |  |  |  |
| COC1(OC)c2no[n+]([O-])c2CCC1O (centres undefined) | > 100 | > 100 | > 100 | > 100 | > 100 | > 100 | > 100 | > 100 | > 100 | > 100 | > 100 | > 100 | > 100 |  |
| N#Cc1c(N)nc(-c2ccc(Cl)cc2)c2c1-c1ccccc1S(=O)(=O)CC2 | > 100 |  | > 100 |  | > 100 |  | > 100 | > 100 | > 100 | > 100 | > 100 |  | > 100 | > 100 |
| CCOC(=O)c1cccn1S(=O)(=O)c1cc(Cl)ccc1NC(=O)CC | > 100 | > 100 | > 100 | > 100 |  | > 100 | 63.1 | > 100 | > 100 | > 100 |  | > 100 | > 100 | > 100 |
| O=c1oc2ccc3ccccc3c2cc1-c1cn2ccccc2n1 | > 100 | > 100 | > 100 | > 100 | > 100 | > 100 | > 100 | 75.1 | > 100 | > 100 | > 100 |  |  | > 100 |
| CCSc1[nH]c(NC(=S)NC(=O)c2ccccc2Cl)c(C(N)=O)c1C(N)=O |  | > 10 | > 10 | > 10 | > 10 | > 10 |  | > 10 | > 10 | > 10 |  | > 10 |  |  |
| C[C@]12CCC(=O)C=C1CC[C@@H]1[C@@H]2CC[C@]2(C)C(=O)NC(=O)C[C@@H]12 | > 100 | > 100 | > 100 | > 100 | > 100 | > 100 | > 100 | > 100 | > 100 | > 100 | > 100 |  | > 100 |  |
| C[N+](C)(C)CC(=O)N/N=C/c1oc(-c2c(O)ccc3ccccc23)c(-c2c(O)ccc3ccccc23)c1[N+](=O)[O-] | 33.4 | 62.3 | 51.9 | 26.8 | 58.3 | 47.4 | 31.1 | 75.5 | > 100 |  | 36.3 |  | 31.6 |  |
| Cc1ccc(S(=O)(=O)n2cc(-c3cc(C(F)(F)F)ccn3)c3cc(Br)ccc32)cc1 | 10.8 | > 100 | > 100 | 45.1 | > 100 | 67.7 |  | 38.6 | > 100 | 29.5 | 57 | 26 | 46.9 |  |
| CS(=O)(=O)c1nc(-c2cc3c(c(S(C)(=O)=O)n2)CCC3)cc2c1CCCCC2 | 63.1 | > 100 | > 100 | 39.3 |  | > 100 | 58.9 | > 100 | > 100 | 84.8 | > 100 |  |  | 58.2 |
| C=Cc1ccc(C)[n+](C[Si](C)(C)O[Si](C)(C)C)c1 | > 100 | > 100 | > 100 |  | > 100 | > 100 | > 100 | > 100 | > 100 | > 100 | > 100 |  |  |  |
| CC(=O)OCC1=C(CCC#N)N2C(=O)C(NC(=O)Cc3cccs3)C2S(=O)C1 (centres undefined) | > 100 | > 100 | > 100 | > 100 | > 100 | > 100 | > 100 | > 100 | > 100 | > 100 | > 100 |  | > 100 |  |
| O=C1/C(=C/c2ccccc2O)N=C(c2ccccc2)N1C1Nc2cc3c(cc2S1)NC(N1C(=O)/C(=C/c2ccccc2O)N=C1c1ccccc1)S3 (centres undefined) | > 100 | > 100 | > 100 | 70 | > 100 | > 100 | > 100 | > 100 | > 100 | > 100 | > 100 | > 100 | > 100 |  |
| O=C1NC2ON=C(c3ccccc3)C2C2ON=C(c3ccccc3)N12 (centres undefined) |  |  | > 100 | > 100 |  | > 100 | > 100 | > 100 |  | > 100 | > 100 | > 100 |  | > 100 |
| O=C(c1cccs1)N(C(=S)N1CCN(c2ccccn2)CC1)c1ccccc1 | > 100 | > 100 | > 100 | > 100 | > 100 | > 100 | > 100 | > 100 | > 100 | > 100 | 84.4 |  |  |  |
| O=C1CCCCC/C1=C\c1cccc(Cl)c1 | > 100 | > 100 | > 100 |  | > 100 | 50.2 | > 100 | > 100 | 60.1 | > 100 | > 100 |  | > 100 | > 100 |
| CCOC(=O)c1cnc2oc3ccc(O)cc3c2c1C | > 100 | > 100 | > 100 | > 100 | > 100 | > 100 |  | > 100 | > 100 |  | > 100 | > 100 | > 100 |  |
| COc1ccc2c3c1O[C@]1(C)C34CCN(C)C(C2)C42C=C[C@@]1(OC)c1c(O)ccc(O)c12 | > 100 | > 100 | > 100 | > 100 |  | > 100 | > 100 |  | > 100 | > 100 |  |  | > 100 |  |
| O=c1c2c(oc3ccccc13)-c1ccccc1OC2 | > 100 | > 100 | > 100 |  |  | > 100 | > 100 | > 100 | > 100 | > 100 | > 100 | > 100 |  | > 100 |
| COC(=O)C(=O)C(C(=O)C(=O)Nc1ccc(F)cc1)c1nc2ccc([N+](=O)[O-])cc2[nH]c1=O (centres undefined) |  |  | > 100 | > 100 | > 100 | > 100 | > 100 | > 100 | > 100 | > 100 | > 100 |  | > 100 |  |
| O=C(CSc1nnc(-c2ccc(N=Cc3ccc(Cl)cc3)cc2)o1)Nc1ccccc1[N+](=O)[O-] | > 100 | > 100 | > 100 | > 100 | > 100 | > 100 | > 100 |  | > 100 | > 100 | > 100 |  |  |  |
| C/C(=N\NS(=O)(=O)c1ccc(C)cc1)C(CN1CCCCC1)C(c1ccccc1)c1c(O)c2ccccc2oc1=O (centres undefined) | > 100 |  | > 100 | > 100 | > 100 | > 100 | > 100 | > 100 | > 100 | > 100 | > 100 |  | > 100 |  |
| CCOC(CN(C)C(=O)Nc1cccc2ccccc12)OCC | > 10 | > 10 | > 10 | > 10 | > 10 | > 10 | > 10 | > 10 | > 10 | > 10 | > 10 | > 10 | > 10 |  |
| O=[N+]([O-])/C(C(Cl)=C(Cl)Cl)=C(\N1CCOCC1)n1nnc2ccccc21 | 47.7 | 72.3 | 50.7 |  |  | 34.9 | 34.1 | 31.6 |  | 36.2 | 58.7 | 56.1 | 37.8 | 33.1 |
| Cn1c(=O)c(Br)c(C=O)n(CCO[N+](=O)[O-])c1=O | 15.8 | 5.8 |  |  | 5.48 |  |  |  | 5.45 | 37.5 | > 100 | 6.17 | 33.4 |  |
| COc1cc(O)c2c(=O)cc(-c3ccc(O)cc3O)oc2c1CC=C(C)C | 39.1 | 83.2 | 86.6 | 19.6 | 26.3 | 30.2 | 33.6 | 32.5 | > 100 |  | 38 | 75.7 | 66.4 |  |
| COc1ccc(Nc2nnc(-c3nsc4ccccc34)s2)cc1 | > 100 | > 100 | > 100 | > 78.9 | > 100 | > 100 |  | > 100 | > 100 | 36.1 | > 100 | > 100 | 15.8 |  |
| NC1=C(NC(=O)Cc2ccc(F)cc2)C(=O)c2ccccc2C1=O | > 100 | > 100 | > 100 | 57 | > 100 | > 91.6 | > 70.1 | > 100 | > 100 | > 87.6 | > 100 |  |  |  |
| NC(=O)N/N=C(\CC1OC(=O)c2ccccc21)c1ccco1 (centres undefined) | > 100 | > 100 | > 100 | > 100 |  | > 100 | > 100 | > 100 | > 100 |  | > 100 |  | > 100 |  |
